Columns and labels:
in vitro [1] = details: for Papp at 5 h, 10 µM: PAMPA, pH 7.4, Papp ± SD (PAMPA)
Source text: The permeability of OT and its prodrugs was estimated by the PAMPA test (Corning, Gentest PAMPA Plate System). The PAMPA method is a common method for the permeability evaluation of early drug candidates. Although this system lacks transporters, paracellular pathway enzymes, and other cell-associated processes, it measures passive diffusion, the primary mechanism by which drugs traverse biological barriers. Consequently, due to its low cost, high throughput, and relative handling ease, it serves as screening tool for predicting drugs absorption potential. The PAMPA reflects the passive transport through biological membranes, and its results are reported to correlate with those obtained from the Caco-2 cell model.
A Gentest Pre-coated PAMPA Plate System was purchased from Corning® (Tewksbury, MA, USA). The assay was performed according to the provider instructions, following Caco-2 convention, where the top well is a donor well. The 10 µM solutions of OT, prodrugs, and permeability markers were prepared in PBS buffer, pH 7.4, from 1 mM stock solutions in dimethyl sulfoxide (DMSO). A total of 300 µL per well of tested compounds was added to the donor, filter plate, which, after distribution of all samples, was coupled with acceptor plate filed with 200 µL of phosphate-buffered saline (PBS) per well. All compounds were measured in triplicate. After 5 h of incubation at 25 °C, 200 µL samples were collected from acceptor and donor wells and analyzed using UHPLC-MS to determine concentrations of compounds.

Caco-2 cell monolayer [2] = assay: Caco-2 monolayer integrity by TEER before and after treatment; type: cell-based, human; details: 100 µg/mL, 2 h treatment
Procedure: This assessment was performed using a dose (100 µg/mL) and treatment time (2 h) similar to those applied in the intestinal transport analysis.
Caco-2 cells were cultured at 37 °C under a 5% CO2 atmosphere using Dulbecco’s Modified Eagle’s Medium (DMEM), supplemented with 20% (v/v) fetal bovine serum, non-essential amino acids 100×, and gentamycin (50 mg/mL). […] The culture medium was replaced every 2 days.

in vitro [3] = details: human, Caco-2
Procedure: (§1) The transport of OT and its derivatives (Oct-OT, Hoc-OT, Dec-OT, Dod-OT) selected for further in vitro studies was evaluated at a target concentration of approximately 100 µg/mL. Intestinal transport was initiated by adding the tested compounds to the apical compartment for absorptive transport determination. The solutions from the acceptor compartments were sampled at 20-minute intervals to analyze the concentration of transported compounds.
(§2) The Caco-2 cell line (ATCC HTB-37), derived from human colon adenocarcinoma, was obtained from the American Type Culture Collection (ATCC, Manassas, VA, USA). Caco-2 cells were cultured at 37 °C under a 5% CO2 atmosphere using Dulbecco’s Modified Eagle’s Medium (DMEM), supplemented with 20% (v/v) fetal bovine serum, non-essential amino acids 100×, and gentamycin (50 mg/mL). For experiments, the Caco-2 cells were plated at a density of 4 × 10^5 cells per cm^2 on polyethylene terephthalate (PET) capillary pore membranes with a pore size of 0.4 μm and a growth surface area of 1.13 cm^2 (Greiner PET hanging). The culture medium was replaced every 2 days. All experiments were performed on differentiated Caco-2 cell monolayers 21 days post-seeding. To check the integrity of the Caco-2 monolayer, transepithelial electrical resistance (TEER) was measured by employing the Millicell Electrical Resistance System (Millipore, Bedford, MA, USA). Moreover, fluorescein-5(6)-sulfonic acid was used as a transport marker, added to the apical side of the Caco-2 cultures at 200 μg/mL concentration. Fluoresceinated sulfonic acid, with a molecular weight of 478 Da, is a hydrophilic, charged molecule at physiological pH and is considered cell impermeable. Unless specified otherwise, all chemicals were purchased from Merck KGaA (Darmstadt, Germany).
(§3) The analyzed compounds at non-cytotoxic concentration of approximately 100 μg/mL were prepared in Hank’s balanced salt solution (HBSS), which was adapted as a transport medium. […] Before the experiments, the Caco-2 monolayers were washed twice with HBSS and pre-incubated at 37 °C for 30 min. Transport was initiated by adding HBSS to the acceptor (basolateral) side and the analyzed compound to the donor (apical) side, which mimicked absorptive intestinal transport. The Caco-2 cell cultures were placed in the incubator (37 °C) and continuously agitated using a plate shaker (120 rpm). At 20 min intervals, a sample was taken from the acceptor compartment, and HPLC analyzed the concentration of the transported compound. Each sample volume was replaced with fresh HBSS warmed to 37 °C. To quantify the transport of compound across the Caco-2 cell monolayer, the apparent permeability coefficient (Papp) was determined according to the protocol previously described by Tavelin et al.. […]

Caco-2 cell monolayer [4] = assay: in vitro
Procedure: as §1, §2, §3

[5] = cited from earlier work

PAMPA permeability (in words) (in vitro [1]) | Papp at 5 h, 10 µM (in vitro [1]) [×10⁻⁶ cm/s] | Caco-2 monolayer integrity (TEER before and after treatment) (Caco-2 cell monolayer [2]) | Papp A→B (in vitro [3]) [×10⁻⁶ cm/s] | Caco-2 permeability compared to OT (in words) (Caco-2 cell monolayer [4]) | Structure (SMILES) | Mass Retention (PAMPA) (in vitro [1]; 5 h, 10 µM, pH 7.4) [%] | Time to peak levels after intranasal administration [5] [min]
poor permeability | 1.08 ± 0.95 | stable and high monolayer integrity | – | – | CCCCCCCCCCCCOC(=O)N[C@H]1CSSC[C@@H](C(=O)N2CCC[C@H]2C(=O)N[C@@H](CC(C)C)C(=O)NCC(N)=O)NC(=O)[C@H](CC(N)=O)NC(=O)[C@H](CCC(N)=O)NC(=O)[C@H]([C@@H](C)CC)NC(=O)[C@H](Cc2ccc(O)cc2)NC1=O [Dod-OT, Dod-Cys(&)-Tyr-Ile-Gln-Asn-Cys(&)-Pro-Leu-Gly-NH2] | – | –
– | 2.37 ± 0.52 | – | – | – | CC[C@H](C)[C@@H]1NC(=O)[C@H](Cc2ccc(O)cc2)NC(=O)[C@@H](NC(=O)OCCOC)CSSC[C@@H](C(=O)N2CCC[C@H]2C(=O)N[C@@H](CC(C)C)C(=O)NCC(N)=O)NC(=O)[C@H](CC(N)=O)NC(=O)[C@H](CCC(N)=O)NC1=O [MeOEt-OT, MeOEt-Cys(&)-Tyr-Ile-Gln-Asn-Cys(&)-Pro-Leu-Gly-NH2] | – | –
significantly better permeability | 9.28 ± 6.11 | stable and high monolayer integrity | – | – | CCCCCCCCCCOC(=O)N[C@H]1CSSC[C@@H](C(=O)N2CCC[C@H]2C(=O)N[C@@H](CC(C)C)C(=O)NCC(N)=O)NC(=O)[C@H](CC(N)=O)NC(=O)[C@H](CCC(N)=O)NC(=O)[C@H]([C@@H](C)CC)NC(=O)[C@H](Cc2ccc(O)cc2)NC1=O [Dec-OT, Dec-Cys(&)-Tyr-Ile-Gln-Asn-Cys(&)-Pro-Leu-Gly-NH2] | – | –
– | 2.2 ± 0.3 | – | – | – | CCCCOC(=O)N[C@H]1CSSC[C@@H](C(=O)N2CCC[C@H]2C(=O)N[C@@H](CC(C)C)C(=O)NCC(N)=O)NC(=O)[C@H](CC(N)=O)NC(=O)[C@H](CCC(N)=O)NC(=O)[C@H]([C@@H](C)CC)NC(=O)[C@H](Cc2ccc(O)cc2)NC1=O [But-OT, But-Cys(&)-Tyr-Ile-Gln-Asn-Cys(&)-Pro-Leu-Gly-NH2] | – | –
– | 2.97 ± 0.64 | – | – | – | CCCOC(=O)N[C@H]1CSSC[C@@H](C(=O)N2CCC[C@H]2C(=O)N[C@@H](CC(C)C)C(=O)NCC(N)=O)NC(=O)[C@H](CC(N)=O)NC(=O)[C@H](CCC(N)=O)NC(=O)[C@H]([C@@H](C)CC)NC(=O)[C@H](Cc2ccc(O)cc2)NC1=O [Prop-OT, Prop-Cys(&)-Tyr-Ile-Gln-Asn-Cys(&)-Pro-Leu-Gly-NH2] | – | –
significantly better permeability | 5.93 ± 0.86 | stable and high monolayer integrity | 14 ± 2.27 | – | CCCCCCCCOC(=O)N[C@H]1CSSC[C@@H](C(=O)N2CCC[C@H]2C(=O)N[C@@H](CC(C)C)C(=O)NCC(N)=O)NC(=O)[C@H](CC(N)=O)NC(=O)[C@H](CCC(N)=O)NC(=O)[C@H]([C@@H](C)CC)NC(=O)[C@H](Cc2ccc(O)cc2)NC1=O [Oct-OT, Oct-Cys(&)-Tyr-Ile-Gln-Asn-Cys(&)-Pro-Leu-Gly-NH2] | – | –
significantly better permeability | 4.67 ± 0.66 | stable and high monolayer integrity | 1.99 ± 0.33 | lower permeability than OT | CCCCCCOC(=O)N[C@H]1CSSC[C@@H](C(=O)N2CCC[C@H]2C(=O)N[C@@H](CC(C)C)C(=O)NCC(N)=O)NC(=O)[C@H](CC(N)=O)NC(=O)[C@H](CCC(N)=O)NC(=O)[C@H]([C@@H](C)CC)NC(=O)[C@H](Cc2ccc(O)cc2)NC1=O [Hoc-OT, Hoc-Cys(&)-Tyr-Ile-Gln-Asn-Cys(&)-Pro-Leu-Gly-NH2] | – | –
– | 2.2 | stable and high monolayer integrity | 7.74 ± 0.53 | – | CC[C@H](C)[C@@H]1NC(=O)[C@H](Cc2ccc(O)cc2)NC(=O)[C@@H](N)CSSC[C@@H](C(=O)N2CCC[C@H]2C(=O)N[C@@H](CC(C)C)C(=O)NCC(N)=O)NC(=O)[C@H](CC(N)=O)NC(=O)[C@H](CCC(N)=O)NC1=O [OT, Cys(&)-Tyr-Ile-Gln-Asn-Cys(&)-Pro-Leu-Gly-NH2, reference compound] | – | 15 to 30
– | 2.78 ± 0.17 | – | – | – | CCOC(=O)N[C@H]1CSSC[C@@H](C(=O)N2CCC[C@H]2C(=O)N[C@@H](CC(C)C)C(=O)NCC(N)=O)NC(=O)[C@H](CC(N)=O)NC(=O)[C@H](CCC(N)=O)NC(=O)[C@H]([C@@H](C)CC)NC(=O)[C@H](Cc2ccc(O)cc2)NC1=O [Et-OT, Et-Cys(&)-Tyr-Ile-Gln-Asn-Cys(&)-Pro-Leu-Gly-NH2] | – | –

Structure (SMILES) | PAMPA permeability (in words) (in vitro [1]) | Papp at 5 h, 10 µM (in vitro [1]) [×10⁻⁶ cm/s] | Caco-2 monolayer integrity (TEER before and after treatment) (Caco-2 cell monolayer [2]) | Papp A→B (in vitro [3]) [×10⁻⁶ cm/s] | Caco-2 permeability compared to OT (in words) (Caco-2 cell monolayer [4]) | Mass Retention (PAMPA) (in vitro [1]; 5 h, 10 µM, pH 7.4) [%] | Time to peak levels after intranasal administration [5] [min]
Cn1c(=O)c2c(ncn2C)n(C)c1=O [Caffeine, reference compound] | – | 22 ± 11.2 | – | – | – | 26 | –
